Laboratory results: patent US20240304334A1, “CLOTTABILITY-BASED PERSONALIZED TREATMENT (CPT) SYSTEM” (priority 2021, published 2024)
Where “and” joins values, the source holds several entries; their conditions need not be identical. Equal entries are not always repeated.

How the values were obtained:
[1] = test system: fibrinogen and fibrin-derivatives; test: CCT before and after anticoagulant in healthy volunteers; format: in vivo, human; conditions: 6 healthy volunteers; for CCT average after treatment: 3 hrs after last intake, rivaroxaban 15 mg twice daily 2.5 days, apixaban 10 mg twice daily 3.5 days; for CCT average before treatment: just before anticoagulant intake; for difference in CCT after vs before treatment: not statistical significant
Protocol: The skilled person is aware of how to perform the CCT test. Thus, as an example, Multifibren-U from Siemens and/or HemoslL Fibrinogen-C from IL/Werfen can be used. Moreover, it is known that the CCT test can show a higher fibrinogen concentration than the actual concentration due to enhanced clotting efficiency by the pro-coagulable factors due to the thrombin activity. […] In such study, rivaroxaban study was performed on 6 healthy volunteers, with ages between 18-50 years. They fulfilled the criteria of normal vital signs and lab screening tests for infection, hematology and coagulation, and had no abnormalities at physical examination. They were given 15 mg rivaroxaban twice daily for 2.5 days. The dosage of twice-daily 15 mg was chosen as it is the highest approved dosage for the initial treatment of acute venous thromboembolism (VTE). The apixaban study was performed on another 6 healthy volunteers, with the same health profile requirements as rivaroxaban study. These 6 volunteers were given 10 mg apixaban twice daily for 3.5 days. Blood samples were drawn just before anticoagulants intake and 3 hrs after the last intake. Measurement of fibrinogen was in duplicate.

[2] = test system: coagulation pathway; test: Clottability test (CCT minus TFT) in plasma of patients on anticoagulants, clinical study C; format: in vivo, human; conditions: individual patient plasma, single time point, on anticoagulant
Protocol: For determination of the clottability of blood, combined clottability assays were performed using a (a) clot-based and (b) enzyme-based fibrinogen test. The information provided by the assay is whether the blood is normal-clottable, hyperclottable, or hypoclottable by measuring fibrinogen concentration in blood plasma.
To estimate the clotting dynamics, […]. Thus, clottability is determined by […] (clottability=CCT−TFT). Exemplary, high values after subtraction of the obtained concentrations of the tests indicate high amounts of pro-coagulable factors and thus increased thrombin activity. Therefore, the greater the in vivo thrombin activation, the higher the obtained values from the clottability test. This leads to the finding that high values relate to an increased clottability.
The skilled person is aware of how to perform the CCT test. Thus, as an example, Multifibren-U from Siemens and/or HemoslL Fibrinogen-C from IL/Werfen can be used. Moreover, it is known that the CCT test can show a higher fibrinogen concentration than the actual concentration due to enhanced clotting efficiency by the pro-coagulable factors due to the thrombin activity. […]

[3] = human, in vivo
Protocol: Plasma samples from 19 patients were tested to investigate the coagulation pathway activity using the clottability test (CCT and TFT) and D-dimer test. These patients were receiving various anticoagulant drugs, such as rivaroxaban, apixaban, edoxaban, dabigatran, or argatroban, and the drug concentrations of each individual were determined. The aim of the study was to examine the activity of the coagulation pathway by means of both, the clottability test and D-dimer test in relation to the determined drug concentration in the plasma.

[4] = co-administering Rifampicin (P-glycoprotein inducer); cited from earlier work
[5] = test system: patients with acute cerebral infarction (ACI); test: Glasgow coma score (GCS) in acute cerebral infarction patients; format: in vivo, human
Protocol: (§1) Seventy patients who had complete clinical record and were diagnosed with acute cerebral infarction (ACI), either validated by CT or MRI, were included into this study. They have to be the first time patients of ACI and the disease onset should be shorter than 72 hours, and the cause of the cerebral infarction was cardiac origin, and they were without abnormal renal function, without bleeding history and hemostatic abnormality. These 70 patients were divided into 2 groups, 35 in control group and the other 35 in observational group. The control group patients were treated with rivaroxaban (anticoagulant), while observational group patients were treated combined rivaroxaban and sodium ozagrel (anti-platelet). Sodium ozagrel inhibits platelet activation and aggregation through specific inhibition of thromboxane (TX) synthetase. Due to the inhibitory effect of ozagrel on platelet activation, platelets cease to become the main lipid surface of thrombin generation. Beside standard treatment such as enriched oxygen supply, etc, all 70 patients were treated with aspirin 100 mg/tablet/day. Additionally, the control and observational groups were given rivaroxaban 15 mg/tablet/day. On top of rivaroxaban, the observational group received intravenously and daily 80 mg of ozagrel sodium in 500 mL glucose (5%) solution. Everyone was treated for 2 weeks. Both groups have very similar age mean and range (40-70 years). The coma assessment was carried out before and after treatment on all subjects, based on Glasgow coma score (GCS) scoring system, which has 15 as full score. The degree of coma is lighter and is reflected with higher score. The recovery based on GCS is summarized in Table 4, together with CCT results.

[6] = test system: Fibrin(ogen); test: CCT in acute cerebral infarction patients; format: in vivo, human; conditions: ACI patients
Protocol: as §1, with “years). After 2 weeks of treatment, clinical efficacy (neurological assessments), coagulation lab tests (only CCT is shown) and GCS scores of the two groups were compared. Neurological […] according to NIH stroke scale (NIHSS). When NIHSS score reduces ≥90%, the disability classification is grade 0, and the treatment is highly efficacious. When NIHSS score reduces to between 46% and 89%, the disability classification is grade 1 to 3, the treatment is considered efficacious.” for “years).”, “The” for “The coma assessment was carried out before and after”, “is no efficacious, when the” for “on all subjects, based on Glasgow coma”, “score” for “score (GCS) scoring system, which has 15 as full score. The degree of coma”, “below 46%.” for “lighter and is reflected with higher score. The recovery based on GCS is summarized in Table 4, together with CCT results.”

[7] = test system: patients with acute cerebral infarction (ACI); test: Neurological assessment (NIHSS) in acute cerebral infarction patients; format: in vivo, human; conditions: ACI patients n=35, 2 weeks, plus aspirin 100 mg/day
Protocol: as §1, with “years). After 2 weeks of treatment, clinical efficacy (neurological assessments), coagulation lab tests (only CCT is shown) and GCS scores of the two groups were compared. Neurological […] according to NIH stroke scale (NIHSS). When NIHSS score reduces ≥90%, the disability classification is grade 0, and the treatment is highly efficacious. When NIHSS score reduces to between 46% and 89%, the disability classification is grade 1 to 3, the treatment is considered efficacious.” for “years).”, “The” for “The coma assessment was carried out before and after”, “is no efficacious, when the” for “on all subjects, based on Glasgow coma”, “score” for “score (GCS) scoring system, which has 15 as full score. The degree of coma”, “below 46%.” for “lighter and is reflected with higher score. The recovery based on GCS is summarized in Table 4, together with CCT results.”

[8] = test system: AECOPD patients; test: Pulmonary function in AECOPD patients; format: in vivo, human
Source text: (§2) This is again another example how anticoagulant treatment reduces pathological in vivo thrombin generation with the concomitant reduction of fibrin-derivatives detectable by CCT. This example is a highly prevalent (>10%) progressive chronic disease, which has strong clinical manifestations of immune and coagulation systems. Chronic obstructive pulmonary disease (COPD) is an inflammatory lung disease that affects respiratory function with concomitant high thrombosis risk. In this example, study subjects were the 70 patients diagnosed with COPD and developed acute exacerbation form of COPD (AECOPD). On top of the standard AECOPD treatments e.g. anti-infection, bronchodilation, phlegm elimination, and oxygen treatment, etc, 32 of these AECOPD patients received no additional treatment and the other 38 of them were treated with low molecular weight heparin calcium (LMWH, 4100 IU anti-FXa/injection every 12 hrs, for 10 days).
(§3) Treatment efficacy was evaluated based on several parameters: pulmonary function, blood gas analysis and coagulation parameters. All this information were obtained before and after the LMWH anticoagulant treatment, the same for the control group. The pulmonary function was measured with several methods, such as FEV1 (measurement of forced expiratory volume in 1 sec after bronchodilator was inhaled) and FVC (forced vital capacity, and the ratio of FEV/FVC in % as clinical signs of respiratory performance). Blood gas analysis was obtained by measuring oxygen saturation of blood (SO2), partial pressure of oxygen (PO2) and partial pressure of carbon dioxide (PCO2). Several blood coagulation parameters were measured; they are CCT, DD, PT-INR.

[9] = test system: fibrinogen and fibrin-derivatives; test: CCT in AECOPD patients; format: in vivo, human
Source text: as §2
(§4) Treatment efficacy was evaluated based on several parameters: pulmonary function, blood gas analysis and coagulation parameters. […] The pulmonary function was measured with several methods, such as FEV1 (measurement of forced expiratory volume in 1 sec after bronchodilator was inhaled) and FVC (forced vital capacity, and the ratio of FEV/FVC in % as clinical signs of respiratory performance). […] Several blood coagulation parameters were measured; they are CCT, DD, PT-INR.

[10] = test system: D-dimer; test: DD in AECOPD patients; format: in vivo, human
Source text: as §2, §4

[11] = test system: coagulation system; test: PT and INR in AECOPD patients; format: in vivo, human
Source text: as §2, §3

[12] = test system: AECOPD patients; test: Blood gas analysis in AECOPD patients; format: in vivo, human; conditions: for PCO2 / SO2: AECOPD
Source text: as §2, §3

COc1ccc(-n2nc(C(N)=O)c3c2C(=O)N(c2ccc(N4CCCCC4=O)cc2)CC3)cc1 [apixaban]
CCT average after treatment [1]: 2.38 | CCT average before treatment [1]: 2.56 | difference in CCT after vs before treatment [1]: −0.18 | Clottability test [2]: > 1.5 g/L and 2.7 g/L and 0.8 g/L and 1.8 g/L

CC1CNc2c(cccc2S(=O)(=O)N[C@@H](CCCNC(=N)N)C(=O)N2CC[C@@H](C)C[C@@H]2C(=O)O)C1 (stereo partly drawn) [argatroban]
PK profile [3]: bottom

[H]/N=C(/N)c1ccc(NCc2nc3cc(C(=O)N(CCC(=O)O)c4ccccn4)ccc3n2C)cc1 [dabigatran]
decrease of maximum plasma concentration of dabigatran [4]: approximately 67%

O=C(NC[C@H]1CN(c2ccc(N3CCOCC3=O)cc2)C(=O)O1)c1ccc(Cl)s1 [rivaroxaban]
GCS score ([5]; T0 before treatment): 6.8 ± 1.11 | GCS score ([5]; T1 after 2 weeks of treatment): 9.07 ± 1.92 | GCS score, difference in mean ([5]; T1 vs T0): 2.27 | CCT average after treatment [1]: 2.64 | CCT average before treatment [1]: 2.75 | difference in CCT after vs before treatment [1]: −0.11 | Fibrin(ogen) CCT ([6]; T0 before treatment): 3.93 ± 1.49 | Fibrin(ogen) CCT ([6]; T1 after 2 weeks of treatment): 3.15 ± 1.12 | Fibrin(ogen) CCT, difference in mean ([6]; T1 vs T0): −0.78 | Clottability test [2]: > 1.5 g/L and 1.7 g/L and -0.5 g/L and 0.6 g/L and 2 g/L | efficacious (NIHSS reduction 46% to 89%), number of patients [7]: 8 | efficacious (NIHSS), share of patients [7]: (22.9%) | highly efficacious (NIHSS score reduces ≥90%), number of patients [7]: 16 | highly efficacious (NIHSS), share of patients [7]: (45.7%) | non-efficacious (NIHSS below 46%), number of patients [7]: 11 | non-efficacious (NIHSS), share of patients [7]: (31.4%) | total efficacious (NIHSS), number of patients [7]: 24 | total efficacious (NIHSS), share of patients [7]: 68.6%

low molecular weight heparin calcium [LMWH]
FEV1 ([8]; after treatment): 1.89 L | FEV1/FVC ([8]; after treatment): 78.4% | FEV1 ([8]; before treatment): 1.36 L | FEV1/FVC ([8]; before treatment): 62.3% | CCT ([9]; after treatment): 2.16 | CCT ([9]; before treatment): 3.97 | DD ([10]; after treatment): 237.4 µg/L | DD ([10]; before treatment): 482.8 µg/L | INR ([11]; after treatment): 1.36 | PT ([11]; after treatment): 13.7 | INR ([11]; before treatment): 0.87 | PT ([11]; before treatment): 9.6 | PO2 ([12]; AECOPD patients n=38, after 10 days LMWH plus standard treatment): 78.4 mmHg | PO2 ([12]; AECOPD patients n=38, before treatment): 71.5 mmHg | PCO2 ([12]; after treatment): 41.9 mmHg | SO2 ([12]; after treatment): 98.6% | PCO2 ([12]; before treatment): 52.2 mmHg | SO2 ([12]; before treatment): 90.8%
